# In patent publication US10688099B2, “Methods for modulating the amount of RNA transcripts” (PTC Therapeutics, Inc., priority 2013, dated 2020):
# Test system: RNA isoforms in PNN 1-46 SMA type I patient-derived fibroblasts
# Assay: RNA Abundance Modulation (RNA isoform abundance, iFPM, HiSeq RNA sequencing)
# Assay type: cell-based, human
# Settings: 3 μM
# Experimental: Cells from a cell line of interest are cultured in conditions sufficient to yield the number of cells capable of generating enough RNA for subsequent sequencing steps. Cells from the tested cell line are contacted with a compound described herein.
# To culture said cells, they are seeded, at appropriate concentrations in a volume of media in a cell culture container and incubated for 4, 5, 6, 7, 8, 9, 10, or more hours. A concentrated solution of compound in a vehicle (e.g., DMSO) is then added in sufficient volume to result in the intended final concentration of the compound, for example 100 nM, 500 nM, 1 μM, 5 μM, 10 μM, 15 μM, 20 μM, or more. The cells may also be treated with vehicle alone, as a control. A number of replicates of each concentration or control may be made (e.g., 2 replicates). The cells are then incubated at a constant temperature appropriate for cell culture of the particular cell line (e.g., 37° C.) for 6, 12, 18, 24, 48, or more hours. After incubation, the growth medium is removed and the cells are washed with the appropriate buffer (e.g., PBS). Cells are then removed from adherence to the cell culture container by treatment with a solution containing trypsin, and the trypsin subsequently quenched with the appropriate volume of buffer (e.g., DMEM-FBS). The cells are then pelleted with gentle centrifugation (e.g., ≤90×g centrifugal force) and resuspended in a buffer to lyse the cells for extraction of RNA. The cell lysates may then be frozen (e.g., at −80° C.) or, alternately, may immediately be used in a procedure to purify the RNA (e.g. by use of the RNEASY PLUS® minikit). The RNA from cell lysates is eluted in the appropriate volume of buffer (e.g., RNEASE-FREE H2O®). The resulting purified RNA may then be sequenced (e.g., using RNASeq) or analyzed using a human exon array (e.g., by GENECHIP® human exon array) to determine changes in the RNA levels in those cells treated with compound compared to those cells treated only with DMSO. The purified RNA may also be quantified by other methods known in the art.
# Using the RNA data obtained from sequencing, exon array, or other methods, a statistical analysis can reveal changes in the RNA levels of compound-treated compared with control. For example, t-test p-values may be calculated for the data obtained through sequencing and exon array methods in order to compare compound-treated cells to those treated with the DMSO control. […] Analysis of the sequencing and exon array data may then also yield predictions about the cause of the aberrant amount of an RNA transcript in the cells (e.g., perturbation of RNA splicing, RNA transcription, or RNA stability). These predictions may be further confirmed by methods known in the art. For example, RT-PCR and RT-qPCR may be used to confirm the change in amount of RNA transcripts for one or more particular transcripts of interest.
# Following the methods described above in Example 1, PNN 1-46 SMA type I patient-derived fibroblasts were treated with 300 nM or 3 μM Compounds 774 and 808 in 0.5% DMSO.
# 700,000 cells were seeded in 10 mL of medium (DMEM plus 10% FBS) in a T-75 flask. Cells were allowed to attach for at least 4 hrs, after which 50 μL of a 200× compound solution (100% DMSO) was added to each well, and the plate was incubated at 37° C. for 24 hrs.
# At the end of the incubation period, the supernatant was removed and the cells where washed with PBS. TrypLE (Invitrogen) express solution was added (e.g. 1.5 mL per one T75 flask). The flasks were incubated for 3 to 5 min at 37° C. The trypsin was then quenched, e.g., by adding 10 mL DMEM-FBS.
# Next, the cells were pelleted using gentle centrifugation without exceeding 90×g centrifugal force. The supernatant was removed and the cell pellet was re-suspended in 600 μL RLT buffer (the RLT buffer was supplemented with beta-mercaptoethanol according to the RNeasy protocol manual) by pipetting up and down until the pellet was completely dissolved […]
structure (smiles),measurement,setting,value
CCc1nc(C)cn2nc(-c3cc(=O)n4cc(C5CCN(C)CC5)cc(C)c4n3)cc12 [Compound 774],L2FC (x + 1),TBC1D15 NR_027449,−2.621
same,L2abs (Cpd-DMSO),TBC1D15 NR_027449,6.94
same,abs (Cpd-DMSO),TBC1D15 NR_027449,123 iFPM
same,amp FC (x + 1),TBC1D15 NR_027449,6.15
same,ave Cpd,TBC1D15 NR_027449,23 iFPM
same,FC (x + 1),TEP1 AB209669,1.0000
same,L2FC (x + 1),TEP1 AB209669,0.000
same,L2abs (Cpd-DMSO),TEP1 AB209669,0
same,abs (Cpd-DMSO),TEP1 AB209669,0 iFPM
same,amp FC (x + 1),TEP1 AB209669,1.00
same,ave Cpd,TEP1 AB209669,0 iFPM
same,FC (x + 1),TEP1 AK303307,1.3304
same,L2FC (x + 1),TEP1 AK303307,0.412
same,L2abs (Cpd-DMSO),TEP1 AK303307,1.91
same,abs (Cpd-DMSO),TEP1 AK303307,4 iFPM
same,amp FC (x + 1),TEP1 AK303307,1.33
same,ave Cpd,TEP1 AK303307,14 iFPM
same,FC (x + 1),TEP1 BC143812,0.8125
same,L2FC (x + 1),TEP1 BC143812,−0.300
same,L2abs (Cpd-DMSO),TEP1 BC143812,4.99
same,abs (Cpd-DMSO),TEP1 BC143812,32 iFPM
same,amp FC (x + 1),TEP1 BC143812,1.23
same,ave Cpd,TEP1 BC143812,137 iFPM
same,FC (x + 1),TEP1 BC143815,0.0138
same,L2FC (x + 1),TEP1 BC143815,−6.184
same,L2abs (Cpd-DMSO),TEP1 BC143815,6.16
same,abs (Cpd-DMSO),TEP1 BC143815,72 iFPM
same,amp FC (x + 1),TEP1 BC143815,72.71
same,ave Cpd,TEP1 BC143815,0 iFPM
same,FC (x + 1),TEP1 BX640983,1.1188
same,L2FC (x + 1),TEP1 BX640983,0.162
same,L2abs (Cpd-DMSO),TEP1 BX640983,0.61
same,abs (Cpd-DMSO),TEP1 BX640983,2 iFPM
same,amp FC (x + 1),TEP1 BX640983,1.12
same,ave Cpd,TEP1 BX640983,13 iFPM
same,FC (x + 1),TEP1 NM_007110,1.0236
same,L2FC (x + 1),TEP1 NM_007110,0.034
same,L2abs (Cpd-DMSO),TEP1 NM_007110,3.20
same,abs (Cpd-DMSO),TEP1 NM_007110,9 iFPM
same,amp FC (x + 1),TEP1 NM_007110,1.02
same,ave Cpd,TEP1 NM_007110,397 iFPM
same,FC (x + 1),TFCP2 AK308087,0.8370
same,L2FC (x + 1),TFCP2 AK308087,−0.257
same,L2abs (Cpd-DMSO),TFCP2 AK308087,4.27
same,abs (Cpd-DMSO),TFCP2 AK308087,19 iFPM
same,amp FC (x + 1),TFCP2 AK308087,1.19
same,ave Cpd,TFCP2 AK308087,98 iFPM
same,FC (x + 1),TFCP2 NM_005653,0.8324
same,L2FC (x + 1),TFCP2 NM_005653,−0.265
same,L2abs (Cpd-DMSO),TFCP2 NM_005653,7.35
same,abs (Cpd-DMSO),TFCP2 NM_005653,163 iFPM
same,amp FC (x + 1),TFCP2 NM_005653,1.20
same,ave Cpd,TFCP2 NM_005653,808 iFPM
same,FC (x + 1),TFCP2 NM_001173452,4.0384
same,L2FC (x + 1),TFCP2 NM_001173452,2.014
same,L2abs (Cpd-DMSO),TFCP2 NM_001173452,7.49
same,abs (Cpd-DMSO),TFCP2 NM_001173452,180 iFPM
same,amp FC (x + 1),TFCP2 NM_001173452,4.04
same,ave Cpd,TFCP2 NM_001173452,239 iFPM
same,FC (x + 1),TFCP2 NM_001173453,0.0531
same,L2FC (x + 1),TFCP2 NM_001173453,−4.236
same,L2abs (Cpd-DMSO),TFCP2 NM_001173453,4.16
same,abs (Cpd-DMSO),TFCP2 NM_001173453,18 iFPM
same,amp FC (x + 1),TFCP2 NM_001173453,18.84
same,ave Cpd,TFCP2 NM_001173453,0 iFPM
same,FC (x + 1),TGFBRAP1 AK021697,0.2793
same,L2FC (x + 1),TGFBRAP1 AK021697,−1.840
same,L2abs (Cpd-DMSO),TGFBRAP1 AK021697,4.66
same,abs (Cpd-DMSO),TGFBRAP1 AK021697,25 iFPM
same,amp FC (x + 1),TGFBRAP1 AK021697,3.58
same,ave Cpd,TGFBRAP1 AK021697,9 iFPM
same,FC (x + 1),TGFBRAP1 NM_004257,0.0064
same,L2FC (x + 1),TGFBRAP1 NM_004257,−7.294
same,L2abs (Cpd-DMSO),TGFBRAP1 NM_004257,7.29
same,abs (Cpd-DMSO),TGFBRAP1 NM_004257,156 iFPM
